According to paper PMC10587737, “Dracorhodin targeting CMPK2 attenuates inflammation: A novel approach to sepsis therapy” (Clinical and Translational Medicine, 2023):

What was measured:
CMPK2 lysine residues = molecular target: T1, CMPK2 lysine residues (Homo sapiens, UniProt Q5EBM0); experiment: Quantitative lysine reactivity profiling (dimethyl labelling)
T1 construct: the N‐terminus was truncated by 22 amino acids; 6xHis (C); made in house; host or cells: FreeStyle 293-F cells (pTT5 vector)
T1 sequence (Q5EBM0 22-449): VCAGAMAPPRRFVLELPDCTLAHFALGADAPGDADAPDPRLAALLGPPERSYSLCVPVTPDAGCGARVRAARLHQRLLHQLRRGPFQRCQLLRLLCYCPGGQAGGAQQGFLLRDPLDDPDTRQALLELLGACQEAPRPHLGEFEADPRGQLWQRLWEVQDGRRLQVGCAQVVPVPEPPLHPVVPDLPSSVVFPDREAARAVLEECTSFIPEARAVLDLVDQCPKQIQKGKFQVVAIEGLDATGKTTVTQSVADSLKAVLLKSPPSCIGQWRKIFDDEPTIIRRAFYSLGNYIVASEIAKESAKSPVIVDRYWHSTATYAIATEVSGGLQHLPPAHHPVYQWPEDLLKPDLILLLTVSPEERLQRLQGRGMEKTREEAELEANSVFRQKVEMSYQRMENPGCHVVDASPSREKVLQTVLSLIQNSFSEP
Protocol: The extent of DP intervention on lysine residues of CMPK2 conformational changes was visualized and the correlation between this effect and the inhibitory potency of the inhibitor was assessed. […] Finally, after the concentration of the active small molecule was fixed, the concentration of the target protein CMPK2 was tested for lysine labelling reactivity according to a gradient of 0.025, 0.05 and 0.1 mg/mL. The range of concentrations used to investigate the effect of small‐molecule ligands on CMPK2 activity was 0.1–150 μM. Each data point contains three biological replicates.
Stable isotope labeling reactions were performed in the active state of the target protein samples. In short, the sample was split into two identical portions. One portion was incubated with DP, and the other was incubated with DMSO vehicle for 30 min at 37℃. Then, mass-differentiated isotopic labeling was performed with heavy (30 mM CD2O, 5 mM NaBH3CN) and light (30 mM CH2O, 5 mM NaBH3CN) labeling reagents. Active isotopic labeling was allowed to proceed for the indicated time, and this experiment allowed incubation for 15 min at 25℃ in the dark. Add 5 M NH4AC and react for 10 min at room temperature to stop the labeling reaction. […] The digested peptide samples were collected by centrifugation, lyophilized, and stored at -80℃ for quantitative proteomic analysis.

[1] = system: NLRP3 inflammasome in BMDMs; experiment: NLRP3 inflammasome activation in LPS-primed BMDMs (ATP/Nigericin; ELISA, immunoblot); format: cell-based, mouse; settings: DP 2.5, 5, 10 μM, supernatant
Protocol: Mouse bone marrow cells (isolated from the legs of mice) were cultured in DMEM supplemented with 20% FBS. BMDMs were generated by culturing mouse bone marrow cells in the presence of 20 ng/ml M-CSF-conditioned medium for 7 days. BMDMs were seeded in 6- or 48-well plates overnight in FBS-free DMEM. On day 2, after priming with ultrapure LPS (200 ng/ml) for 4 h, BMDMs (1 × 10^6 cells/ml) were further stimulated with ATP (4 mM) or nigericin (10 μM) for 45 min. Supernatants and cell lysates were collected for ELISA and immunoblot analyses.
The cytokines mouse IL-1β and TNF-α in supernatants from serum, cell culture, and tissue culture were assayed by ELISA kits (R&D Systems, Minneapolis, MN, USA) according to the manufacturer’s instructions.
(§1) Cells were lysed in NP-40 buffer containing a protease inhibitor cocktail (Roche, 11836153001) and a phosphatase inhibitor cocktail (Sigma-Aldrich, P5726). Protein concentrations were quantified using a BCA Protein Assay Kit (Beyotime, 5000T P0011). Equal amounts of protein were separated by SDS-PAGE and transferred onto nitrocellulose membranes. The membranes were then incubated with antibodies against CMPK2, NLRP3, ASC, pro-caspase-1, pro-IL-1β, GAPDH, caspase-1 and IL-1β, followed by incubation with the appropriate secondary HRP-conjugated antibodies and development with ECL.

[2] = system: cellular CMPK2 activity in BMDMs; experiment: Effect on cellular CMPK2 activity (ADP-Glo on cell lysates); format: cell-based, mouse
Protocol: Primary BMDMs were generated by culturing mouse bone marrow cells in the presence of 20 ng/ml M-CSF conditioned medium for 7 days. BMDMs were seeded in 6-well plates overnight in FBS-free DMEM. After adhering to the wall, different concentrations of DP were added and treated for 12 hours. On day 2, after priming with ultrapure LPS (200 ng/ml) for 4 h, BMDMs (1 × 10^6 cells/ml) were further stimulated with ATP (4 mM) or Nigericin (10 μM) for 45 min. Cell lysates were collected for ADP-Glo™ Kinase Assay (Promega, Madison, WI, USA).

[3] = system: CMPK2 expression in BMDMs; experiment: CMPK2 protein and mRNA expression in BMDMs; format: cell-based, mouse
Protocol: as §1

CMPK2 = molecular target: T2, CMPK2 (Homo sapiens, UniProt Q5EBM0); experiment: Ultrafiltration-affinity mass spectrometry screening (FC, CMPK2 vs BSA); format: binding; parameters: the N‐terminus was truncated by 22 amino acids; 6xHis (C); made in house; host or cells: FreeStyle 293-F cells (pTT5 vector)
T2 sequence (Q5EBM0 22-449): T1 sequence (Q5EBM0 22-449)
Protocol: The purified kinase CMPK2 was incubated with the six cocktails for 30 min at 37°C in a suitable buffer solution. In the compound cocktail, each compound concentration was 1 μM, and the concentration of the kinase CMPK2 was set at 5 μM. Each of the above incubation solutions was added to a 0.5 mL 10 kDa ultrafiltration tube (Amicon μltra‐0.5 10K Centrifugal Filter Devices, Millipore), and four experimental replicates were conducted for each CMPK2 and BSA pair. The 10 kDa ultrafiltration tube was centrifuged with the incubation solution at 13 000 × g for 20 min at 4°C. Centrifugation was stopped when the solution volume was approximately 100 μL, and then the mixture was washed five times with cold ammonium acetate (150 mM, pH 7.5). For affinity selection, 100 μL of the mixture was transferred after centrifugation and rinsed into a new eppendorf tube. […] The protein precipitate was discarded and the liquid was concentrated with a N2 stream. The residue was re‐dissolved in 50% methanol before injection. BSA samples were processed in a manner parallel to that of CMPK2 samples.
Sample measurement was detected by using an UHPLC instrument (Shimadzu) combined with a Triple TOF 5600^+ MS (SCIEX). Chromatographic separation was conducted with an Acquity UPLC BEH C18 column (1.7 μm, 2.1 × 100 mm, Waters) at a temperature maintained at 40°C and a flow rate of 0.3 mL/min, with mobile phases of water–0.1% formic acid (A) and acetonitrile (B). The linear gradient elution profile was as follows: 0−2 min, 5% B; 2−12 min, 5−30% B; 12−25 min, 30−90% B; 25−30 min, 90% B; and re‐equilibration for 5 min. Subsequently, the gradient was recovered to the initial conditions at the final 1 min. Whether it was a test sample or a quality control (QC) sample, each injection volume was 5 μL.
Briefly, the chromatographic peaks of each bound ligand were extracted using PeakView with identification criteria of precise mass measurement deviation and retention time tolerance of 5 ppm and 0.1 min, respectively. The MS response of each ligand was represented with the integrated peak area extracted by the corresponding extract ion chromatogram. The effective hits were selected on the basis of fold change (FC) value ≥ 2, p value < .05 and cyclic voltammetry (CV) ≤ 30% and were identified as candidate ligands of CMPK2. By extracting the m/z of individual standards from the acquired MS/MS spectrum, the decimal point of RT was used to distinguish the ambiguous compound peaks in the cocktails.
The experimental samples were injected into a UHPLC‐Q‐TOF‐MS system. First, total ion chromatograms (TIC) reflected the general overview of all samples (Supporting Information Figure S2A). […] Among the groups, each sample with a CV more than 30% was considered an abnormal sample and was not considered in the subsequent statistical analysis. In addition, the p value of each sample between the groups was calculated by MetaboAnalyst 5.0, and the significance of differences was determined. In the ultrafiltration‐affinity mass spectrometry profiling, we calculated FC, which is defined as the ratio of the MS response between the compound detected in the CMPK2 and BSA incubation system (Supporting Information Figure S2C,D). […] To select small‐molecule ligands with strong affinity, we determined the screening criteria to be FC ≥ 2. Affinity MS analysis generated a set of raw data, and the compounds that met the pre‐judgment criteria (FC ≥ 2, p < .05) were selected as compound hits (Supporting Information Figure S2).

## COc1c2ccc(-c3ccccc3)oc-2cc(=O)c1C [compound 73, Dracohodin perochlorate]
CMPK2 lysine residues; residues K245, K249, K282, K320, K324, K293, K265, K251, K277 and K368
  isotope-labelling ratios of lysine residues: lower than 0.5
CMPK2 lysine residues; residues K393, K433 and K409, DP–CMPK2 co-incubation
  isotope-labelling ratios of lysine residues: approximately 1
[1]; 12 h before or 1 h after LPS
  lysis of p20 (caspase-1): inhibited
  secretion of p17 (IL-1β): inhibited
[1]
  production of TNF-α: had no effect
[2]; DP 10 μM
  cellular CMPK2 inhibition: enhanced significantly
[2]; DP 2.5 and 5 μM
  cellular CMPK2 enzyme activity: tendency to inhibit
[3]
  mRNA expression level of Cmpk2: decreased
[3]; DP 2.5, 5, 10 μM
  protein expression of CMPK2: dose‐dependently inhibited
CMPK2; affinity mass spectrometry competition, Figure S3C
  binding between dUMP and CMPK2: interfered
CMPK2; negative ion mode, ratio of MS response CMPK2 vs BSA
  FC Negative: 3.00
CMPK2; positive ion mode, ratio of MS response CMPK2 vs BSA
  FC Positive: 4.32
